From US7268212B2, “Ligand of G protein-coupled receptor protein and DNA thereof” (Takeda Pharmaceutical Company Limited, priority 2001, dated 2007)
No end group written: not given here.

Target: T1, GPR7 (Homo sapiens, UniProt P48145)
T1 sequence (P48145 1-328): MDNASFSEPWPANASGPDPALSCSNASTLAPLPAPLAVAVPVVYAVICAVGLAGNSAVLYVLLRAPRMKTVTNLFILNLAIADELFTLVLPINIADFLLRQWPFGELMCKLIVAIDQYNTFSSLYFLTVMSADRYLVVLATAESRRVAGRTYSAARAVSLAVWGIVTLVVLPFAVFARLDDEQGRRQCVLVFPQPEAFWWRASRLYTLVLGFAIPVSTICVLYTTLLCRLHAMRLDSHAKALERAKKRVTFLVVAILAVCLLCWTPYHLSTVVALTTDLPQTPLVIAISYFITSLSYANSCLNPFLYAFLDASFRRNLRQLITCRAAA
Test: Test on binding inhibition of various peptides against human GPR7-expressed CHO cell membrane fraction
Design: The synthetic primers were constructed so as to amplify the gene in the region to be translated to its receptor protein; expressed in transfected cells; host or cells: CHO cells, membrane fraction
Conditions: iodine-labeled hGPR7L-23; human GPR7-expressed CHO cell membrane fraction 1 μg/well; room temperature 1.5 hour
Method: A mixture of 20 μl of hGPR7L-23 (SEQ ID NO:1) (0.1 mM or 1 mM), 20 μl of lactoperoxidase (Sigma; prepared using 10 μg/ml and 0.1M HEPES-NaOH pH7.0), 20 μl of Idoine-125 (manufactured by Amersham, MS-30, 74 MBq), 20 μl of 0.005% hydrogen peroxide (manufactured by Wako Pure Chemical Industries, Ltd.) was allowed to stand at room temperature for 20 to 30 minutes. Then, 600 μl of 0.1% TFA was added to the mixture. The mixture was applied to reverse phase HPLC for separation and the peaks of the two'labeled products were fractionated in a tube charged with 1 mL of DMSO. Immediately, the fraction was stored on ice and an aliquot was provided for measurement of the radioactivity with a γ-counter. The remaining preparation was dispensed and stored at −30° C.
Human GPR7-expressed CHO cells were cultured in a flask. The flask was washed with 5 mM EDTA/PBS to strip the cells off. The cells were stripped off with 5 mM EDTA/PBS and centrifuged for recovery. The recovered cells were suspended in 25 mL of a buffer for preparing membrane fraction (50 mM Tris-HCl, pH7.5, 5 mM EDTA, 0.1% bovine serum albumin (manufactured by Sigma), 0.5 mM PMSF (manufactured by Wako Pure Chemical Industries, Ltd.), 20 μg/mL leupeptin (manufactured by Peptide Research Institute), 0.1 μg/mL pepstatin A (manufactured by Peptide Research Institute) and 4 μg/mL E-64 (manufactured by Peptide Research Institute)), followed by homogenization on ice using a polytron (12,000 rpm, 15 seconds×3 times). The homogenate was centrifuged at 4° C. under 1,000 g for 10 minutes with a high speed cooling centrifuge to recover the supernatant. […] The pellets were recovered and suspended in a small quantity of the buffer for preparing membrane fractions. […]
Using the assay buffer, the human GPR7-expressed CHO cell membrane fraction was diluted in a final concentration of 1 μg/well and iodine-labeled hGPR7L-23 (SEQ ID NO:1) was diluted in a final concentration of […]. […] After 50 μl of a liquid scintillator was dispensed thereto, the radioactivity was counted on a Top Count (Packard) and the data was analyzed in triplet (FIG. 33). […]

For “WYKPTAGQGYYSVGRAAGLLSGFHRSPYA [Trp1-bovine GPR7L(29)]”, the IC50 was 0.31 nM.
